The test system of data set [1] is histamine-induced vascular leakage. The experiment in a line: Cutaneous histamine challenge, Evans blue dye extravasation. The note with it: prophylactic IP dose one hour prior to cutaneous histamine challenge. In kind it is in vivo, male FVB mice. From the text: 10-week old male FVB mice were purchased from Jackson Laboratories. Mice were housed in a Vivarium on a standard light:dark cycle and were given free access to food and water. On day 0 mice were anesthetized with isoflurane and the entire dorsal area was shaved with an electric shaver. Residual hair was removed via application of depilatory cream. Residual cream was removed with sterile gauze and water. […] Immediately following Evans blue dye administration, and while still under anesthesia, a single PBS injection (dorsal, intradermal, 50 ul) and three equally spaced histamine injections (dorsal, intradermal, 1.25 ug contained in 50 ul) were applied. Once the intradermal injections were complete, the mice were removed from anesthesia and were placed back into their housing cages for 25 minutes.
Cardiac transperfusion After 25 minutes of exposure to histamine the mice were placed under anesthesia with an appropriate volume of 2.5% avertin (100 ul/10 g body weight via intraperitoneal injection). Once a deep plane of anesthesia was produced the mice were place and secured in a supine position, the chest was surgically opened, the heart was exposed and a catheter terminating in a 23 gauge needle was inserted into the left ventricle. Once the catheter was securely in place, a cut in the right atria was performed and 25 ml of cold PBS was delivered, via the catheter at 100 mmHg to flush out all intravascular Evans blue dye. Once a mouse was effectively perfused the dorsal skin was surgically removed. Four, 12 mm skin biopsies were collected (1PBS, 3 histamine) for each mouse using a standardized skin punch. In all cases, the biopsy that received PBS served as a baseline control for that individual mouse.
Quantification of Evans blue dye extravassation Skin biopsies were placed in labelled tubes and placed in a 60 degree Celsius oven for 16 hrs to removed all moisture. […] An Evans blue dye standard curve encompassing high and low experimental data points was constructed such that the amount of Evans blue dye extravassation (ug/g of skin) could be calculated.

The target in the next data set is T1, recombinant human IgG Fc (Homo sapiens, UniProt P01857).
T1 construct: purchased R&D Systems
The experiment in a line: Tryptophan fluorescence spectroscopy binding to human IgG Fc (negative control). The note with it: increasing ligand concentrations. From the text:
Ligand and receptor interaction. […] Data was compiled using SoftMax and analyzed using Prism.

The nature of data set [2]: Pharmacokinetic analysis after intravenous bolus in rats (plasma ELISA). It counts as in vivo, male Sprague Dawley rats. The protocol: Indicated amounts (ug/kg) of parental Vasculotide and MPA-Br were intravenously administered via bolus injection to male Sprague Dawley rats. […] The 120 ug/kg dose provided the greatest sensitivity of detection in these studies and as such, PK measures presented pertain to this particular dose level. […] MPA-Br PK was evaluated in a multi-dose (MD) intravenous setting at 120 ug/kg once every 24 hours for three consecutive days.
On the technique in general: ELISA stands for enzyme-linked immunosorbent assay.

Data set [3] relates to Influenza A virus HKx31 (H3N2). It counts as in vivo, C57BL/6J mice.
The test system of data set [4] is HUVEC. The experiment in a line: COVID-19 patient serum induced HUVEC integrity destabilization, impedance (xCELLigence RTCA). It counts as cell-based, human.
A further data set concerns MAPK (Erk2). The experiment in a line: MAPK phosphorylation ELISA in HUVEC. In kind it is cell-based, human. Conditions: HUVEC stimulation. The protocol: HUVECs were cultured as above. Lyates were prepared in (1 mM EDTA, 0.5% Triton X-100, 6M urea, 5 mM NaF, 100 uM PMSF, 25 mM sodium pyrophosphate, 1 mM sodium orthovanadate, pH 7.2-7.4, 1× cOmplete™ mini EDTA-free protease inhibitor). BCA protein concentration kit was used to measure protein concentration of each lysate as per manufacturer's instructions (Thermo Scientific). Samples were subjected to ELISAs that measured phosphorylated MAPK and total MAPK levels according to the manufacturer's protocol (R&D Systems). 20 μg or 10 μg of protein from each sample was loaded in duplicate for phosphorylated MAPK and total MAPK readings respectively. Phosphorylated MAPK:total MAPK ratios were determined for each sample. The level of MAPK phosphorylation for all treatment groups were then normalized to that of the no treatment group (NT, EBM only) in each experiment.

The test system of data set [5] is HUVEC. The experiment in a line: Thrombin- and TNF-α-induced HUVEC destabilisation, impedance (xCELLigence RTCA). Conditions: for total AUC normalised to vehicle control treatment: equivalent to CI for vehicle control cells. It counts as cell-based, human.
In data set [6] the target is T2, Tie2 receptor (Mus musculus, UniProt Q02858).
T2 construct: host or cells: primary mouse lung microvascular endothelial cells (MLMVEC)
T2 sequence (Q02858 23-1122): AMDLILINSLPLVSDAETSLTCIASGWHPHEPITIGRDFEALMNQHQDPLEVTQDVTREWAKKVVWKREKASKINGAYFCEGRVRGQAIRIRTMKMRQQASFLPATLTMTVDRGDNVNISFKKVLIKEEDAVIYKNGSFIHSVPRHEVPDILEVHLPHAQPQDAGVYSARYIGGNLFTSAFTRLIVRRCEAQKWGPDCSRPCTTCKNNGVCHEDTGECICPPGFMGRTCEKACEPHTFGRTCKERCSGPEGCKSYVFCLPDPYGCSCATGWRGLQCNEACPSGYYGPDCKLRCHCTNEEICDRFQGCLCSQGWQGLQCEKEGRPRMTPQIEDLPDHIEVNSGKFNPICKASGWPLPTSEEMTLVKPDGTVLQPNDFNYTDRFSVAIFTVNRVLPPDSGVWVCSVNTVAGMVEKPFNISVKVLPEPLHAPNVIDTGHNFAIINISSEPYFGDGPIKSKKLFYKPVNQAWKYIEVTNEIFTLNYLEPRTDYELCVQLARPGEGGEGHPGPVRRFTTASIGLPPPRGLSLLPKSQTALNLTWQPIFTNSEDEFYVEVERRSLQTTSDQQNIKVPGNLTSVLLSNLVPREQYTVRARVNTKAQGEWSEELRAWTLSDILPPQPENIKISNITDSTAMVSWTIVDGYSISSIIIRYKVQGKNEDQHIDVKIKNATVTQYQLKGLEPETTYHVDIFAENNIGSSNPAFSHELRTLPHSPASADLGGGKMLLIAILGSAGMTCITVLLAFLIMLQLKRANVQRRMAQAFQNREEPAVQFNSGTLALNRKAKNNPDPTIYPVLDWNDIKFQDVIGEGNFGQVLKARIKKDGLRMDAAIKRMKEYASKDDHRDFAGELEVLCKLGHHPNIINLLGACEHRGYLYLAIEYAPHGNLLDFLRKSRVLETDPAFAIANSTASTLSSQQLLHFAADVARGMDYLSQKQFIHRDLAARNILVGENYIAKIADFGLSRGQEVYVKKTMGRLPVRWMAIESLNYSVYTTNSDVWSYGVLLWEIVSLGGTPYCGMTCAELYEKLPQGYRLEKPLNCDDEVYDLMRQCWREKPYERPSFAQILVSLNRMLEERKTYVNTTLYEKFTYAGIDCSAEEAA
The experiment in a line: Tie2 phosphorylation ELISA in primary mouse lung microvascular endothelial cells (MLMVEC). It counts as cell-based.
Protocol: Primary mouse lung endothelial cells (Cell Biologics) were seeded on 100 mm tissue culture plates in complete endothelial basal media (EBM)(Lonza) supplemented with ‘EGM single quots’ (Lonza). […] Following the 15 minute stimulation, cells were placed on ice and washed twice in ice cold PBS. Cell lysates were prepared for use in IC12 lysis buffer (1% NP-40, 20 mM Tris (pH 8.0), 137 mM NaCl, 10% Glycerol, 2 mM EDTA, 1 mM activated sodium orthovanadate). BCA protein concentration kit was used to measure protein concentration of each lysate as per manufacturer's instructions (Thermo Scientific). Samples were subjected to ELISAs that measured phosphorylated Tie2 and total Tie2 levels according to the manufacturer's protocol (mouse Tie2, R&D Systems). 50 μg or 5 μg of protein from each sample was loaded in triplicate for phosphorylated Tie2 and total Tie2 readings respectively. Phosphorylated Tie2:total Tie2 ratios were determined for each sample. The level of Tie2 phosphorylation for all treatment groups was then normalized to that of the no treatment group (NT, complete EBM only) in each experiment.

For data set [7], the target named is T3, Tie2 receptor (Homo sapiens, UniProt Q02763).
T3 construct: endogenous in cells; host or cells: HUVEC; HMVEC-tert (human dermal microvascular endothelial cells immortalized with telomerase)
T3 sequence (Q02763 23-1124): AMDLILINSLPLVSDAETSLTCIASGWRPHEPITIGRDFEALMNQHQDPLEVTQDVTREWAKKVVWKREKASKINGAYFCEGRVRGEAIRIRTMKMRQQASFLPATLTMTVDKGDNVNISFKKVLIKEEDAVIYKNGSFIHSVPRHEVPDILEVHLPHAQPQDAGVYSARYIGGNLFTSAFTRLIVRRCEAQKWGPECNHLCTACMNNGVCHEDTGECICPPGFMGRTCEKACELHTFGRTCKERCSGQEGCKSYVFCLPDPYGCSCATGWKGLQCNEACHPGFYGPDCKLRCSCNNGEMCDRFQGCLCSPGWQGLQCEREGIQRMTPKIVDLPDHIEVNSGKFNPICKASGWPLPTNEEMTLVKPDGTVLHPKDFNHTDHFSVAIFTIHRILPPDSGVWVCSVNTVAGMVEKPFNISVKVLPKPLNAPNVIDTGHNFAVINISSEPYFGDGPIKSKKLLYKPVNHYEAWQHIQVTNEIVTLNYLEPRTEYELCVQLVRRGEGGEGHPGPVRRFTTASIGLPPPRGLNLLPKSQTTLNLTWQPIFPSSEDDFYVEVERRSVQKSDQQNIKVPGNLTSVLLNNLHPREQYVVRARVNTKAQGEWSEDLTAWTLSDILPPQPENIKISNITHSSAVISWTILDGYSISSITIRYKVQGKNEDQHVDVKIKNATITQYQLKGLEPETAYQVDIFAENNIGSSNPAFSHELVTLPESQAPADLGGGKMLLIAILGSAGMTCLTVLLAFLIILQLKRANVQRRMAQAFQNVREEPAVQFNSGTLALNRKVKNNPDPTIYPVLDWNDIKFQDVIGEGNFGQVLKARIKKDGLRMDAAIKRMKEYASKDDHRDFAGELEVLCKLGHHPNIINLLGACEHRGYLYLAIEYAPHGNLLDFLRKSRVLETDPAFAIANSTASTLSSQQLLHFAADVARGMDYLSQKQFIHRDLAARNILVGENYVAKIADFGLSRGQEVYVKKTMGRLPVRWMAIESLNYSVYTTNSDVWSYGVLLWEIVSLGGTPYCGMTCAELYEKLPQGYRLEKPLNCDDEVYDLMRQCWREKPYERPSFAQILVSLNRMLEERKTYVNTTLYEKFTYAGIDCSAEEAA
The experiment in a line: Tie2 phosphorylation ELISA in HUVEC. It counts as cell-based. Conditions: 15 minute stimulation.
Protocol: Human umbilical vein endothelial cells (HUVECs) were seeded on 100 mm tissue culture plates in complete endothelial basal media (EBM)(Lonza) supplemented with ‘EGM single quots’ (Lonza) in 20% O2, 5% CO2 and 37° C. humidified chamber according to manufacturer's recommendations. […] Following the 15 minute stimulation, cells were placed on ice and washed twice in ice cold PBS. Cell lysates were prepared for use in 1C12 lysis buffer (1% NP-40, 20 mM Tris (pH 8.0), 137 mM NaCl, 10% Glycerol, 2 mM EDTA, 1 mM activated sodium orthovanadate). BCA protein concentration kit was used to measure protein concentration of each lysate as per manufacturer's instructions (Thermo Scientific). Samples were subjected to ELISAs that measured phosphorylated Tie2 and total Tie2 levels according to the manufacturers protocol. 20 μg or 5 μg of protein from each sample was loaded in duplicate for phosphorylated Tie2 and total Tie2 readings respectively. Phosphorylated Tie2:total Tie2 ratios were determined for each sample. The level of Tie2 phosphorylation for all treatment groups were then normalized to that of the no treatment group (NT, complete EBM only) in each experiment.

Where [8] appears, read: 120 ug/kg intravenous bolus, parental Vasculotide vs MPA-Br.
The mark [9] stands for this setting: day 6, MPA-Br 200 ng/day vs parental Vasculotide 500 ng.

Entries after “also recorded” stand apart in the source; their conditions may differ. Where no end group is shown, it is not given here.

“MPA-Br: T7 peptide linked via 3-mercaptopropionic acid to a bromoacetimide-activated 10K PEG tetramer through a linear sulfane moiety (HHHRHSF; not fully specified (N-terminus); also: linked via 3-mercaptopropionic acid to bromoacetimide-activated 10K PEG tetramer (sulfane), site not given here)”: in data set [1], the “vascular leakage (extravassation of Evans blue dye) vs vehicle treated mice” value is reported as “significantly less vascular leakage”. Further, the “binding to recombinant human IgG Fc (fluorescence intensity)” value in the data set with recombinant human IgG Fc is on record as “no dose dependent increase in fluorescence intensity; also recorded: No saturation of binding”. Moreover, in data set [2] (120 ug/kg IV once every 24 hours for three consecutive days), the “drug accumulation, multi-dose (MD) PK vs single dose” value is on record as “no drug accumulation”. In data set [2] (setting [8]), the clearance rate entry is recorded as “similar” and the volume of distribution result is “similar”. Also, in [3] (setting [9]), the arterial oxygenation entry is given as “superiority to parental Vasculotide” and the “protection from wasting (fraction of initial body weight)” value is given as “superiority to parental Vasculotide”. In addition, in data set [3] (mouse, in vivo), the activity score entry is given as “significantly improved”; the “all study endpoints compared to parental Vasculotide” value was “performed equal, or better than parental Vasculotide”; the “lung oxygenation (SpO2)” value is given as “significantly improved”; the “thermal regulation (body temperature)” value is “significantly improved”. Besides, the “overall survival of infected mice” value in [3] (mouse, in vivo, ip) is “significantly improved overall survival”. In the data set on HUVEC [4], the “CI over time after COVID-19 serum challenge” value was “restoration of CI loss”. Besides, the “AUC normalised to vehicle control” value with HUVEC [4] (COVID-19 patient sample IgM, 0.5 to 5 ng/mL MPA-Br) is “statistically significant increase in normalized CI”. The “cell index difference between cells incubated with serum+AV-001 and serum+vehicle control” value in the data set with HUVEC [4] (COVID-19 serum (IgG8, IgM5, IgM6) compared to HD) is listed as “Significant differences”. The “total AUC normalised to vehicle control treatment” value (from here on “total AUC normalised”) in the data set on HUVEC [4] (COVID-19 serum IgG8 and IgM6 (FIG. 10D-E), both AV-001 doses) is reported as “statistically significant increase in CI”. Also, the “total AUC normalised” value in the data set with HUVEC [4] (serum HD1, high dose 5 ng/mL) is “statistically significant increase in normalised cell impedance”. For the same substance, the “activation of MAPK (phosphorylated MAPK:total MAPK)” value with MAPK (Erk2) is “downstream activation of MAPK”. The “normalized CI overtime compared to untreated HUVEC” value in the data set with HUVEC [5] (TNF-a challenge (0.5 ng/mL), MPA-Br 5 ng/mL) is listed as “significant increase in normalized CI”. Further, the “total AUC normalised” value in the data set with HUVEC [5] (TNF-a challenged cells, MPA-Br 5 ng/mL) was “statistically significant increase in normalized CI”. In addition, in the data set with HUVEC [5] (thrombin challenge (0.25 ng/mL), MPA-Br 0.5 to 5 ng/mL), the “normalized CI overtime compared to untreated HUVEC” value is recorded as “significant increase in normalized CI”. Further, the “total AUC normalised” value with HUVEC [5] (thrombin challenged cells, MPA-Br 0.5 to 5 ng/mL) was “statistically significant increase in normalized CI”. For the same substance, the “fold lower concentration for statistically significant Tie2 activation vs parental Vasculotide” value with Tie2 receptor [6] came to 10 fold. Further, the “doses significantly activating Tie2 (pTie2/total Tie2 vs no treatment)” value with Tie2 receptor [7] is recorded as 10-100 ng.

The values above are taken from patent US20250345387A1, “CORONAVIRUS THERAPEUTICS AND TREATMENT METHODS” (priority 2020, published 2025).
